According to patent US7943629B2, “Sulphimides as protein kinase inhibitors” (Bayer Schering Pharma AG, priority 2006, dated 2011):

What was measured:
CDK2/CycE = molecular target: T1, CDK2/CycE (Homo sapiens, UniProt P24941); experiment: CDK2/CycE kinase assay; format: biochemical; settings: for IC50: 0.5 μM ATP, histone IIIS, 22° C., 10 min; for inhibition of CDK2 kinase (in words): summary of Tab. 1
T1 construct: GST; purchased ProQinase GmbH, Freiburg; host or cells: baculovirus-infected insect cells (Sf9)
Description: Recombinant CDK2- and CycE-GST fusion proteins, purified from baculovirus-infected insect cells (Sf9), were purchased from ProQinase GmbH, Freiburg. The histone IIIS used as kinase substrate was purchased from Sigma.
(§1) CDK2/CycE (50 ng/measurement point) was incubated in the presence of various concentrations of test substances (0 μM, and within the range 0.01-100 μM) in assay buffer [50 mM Tris/HCl pH 8.0, 10 mM MgCl2, 0.1 mM Na ortho-vanadate, 1.0 mM dithiothreitol, 0.5 μM ATP, 10 μg/measurement point histone IIIS, 0.2 μCi/measurement point ^33P-gamma-ATP, 0.05% NP40, 1.25% dimethyl sulphoxide] at 22° C. for 10 min. The reaction was stopped by adding EDTA solution (250 mM, pH 8.0, 15 μl/measurement point).
15 μl of each reaction mixture were loaded onto P30 filter strips (from Wallac), and non-incorporated ^33P-ATP was removed by washing the filter strips three times in 0.5% strength phosphoric acid for 10 min each time.
(§2) After the filter strips had been dried at 70° C. for 1 hour, the filter strips were covered with scintillator strips (MeltiLex™ A, from Wallac) and baked at 90° C. for 1 hour. The amount of incorporated ^33P (substrate phosphorylation) was determined by scintillation measurement in a gamma radiation counter (Wallac).

KDR (VEGFR2) = molecular target: T2, KDR (VEGFR2) (Homo sapiens, UniProt P35968); experiment: KDR kinase assay; format: biochemical; settings: 10 μM ATP, 22° C., 45 min, HTRF
T2 construct: made in house; host or cells: E. coli
T2 sequence (P35968 20-1356, species assumed): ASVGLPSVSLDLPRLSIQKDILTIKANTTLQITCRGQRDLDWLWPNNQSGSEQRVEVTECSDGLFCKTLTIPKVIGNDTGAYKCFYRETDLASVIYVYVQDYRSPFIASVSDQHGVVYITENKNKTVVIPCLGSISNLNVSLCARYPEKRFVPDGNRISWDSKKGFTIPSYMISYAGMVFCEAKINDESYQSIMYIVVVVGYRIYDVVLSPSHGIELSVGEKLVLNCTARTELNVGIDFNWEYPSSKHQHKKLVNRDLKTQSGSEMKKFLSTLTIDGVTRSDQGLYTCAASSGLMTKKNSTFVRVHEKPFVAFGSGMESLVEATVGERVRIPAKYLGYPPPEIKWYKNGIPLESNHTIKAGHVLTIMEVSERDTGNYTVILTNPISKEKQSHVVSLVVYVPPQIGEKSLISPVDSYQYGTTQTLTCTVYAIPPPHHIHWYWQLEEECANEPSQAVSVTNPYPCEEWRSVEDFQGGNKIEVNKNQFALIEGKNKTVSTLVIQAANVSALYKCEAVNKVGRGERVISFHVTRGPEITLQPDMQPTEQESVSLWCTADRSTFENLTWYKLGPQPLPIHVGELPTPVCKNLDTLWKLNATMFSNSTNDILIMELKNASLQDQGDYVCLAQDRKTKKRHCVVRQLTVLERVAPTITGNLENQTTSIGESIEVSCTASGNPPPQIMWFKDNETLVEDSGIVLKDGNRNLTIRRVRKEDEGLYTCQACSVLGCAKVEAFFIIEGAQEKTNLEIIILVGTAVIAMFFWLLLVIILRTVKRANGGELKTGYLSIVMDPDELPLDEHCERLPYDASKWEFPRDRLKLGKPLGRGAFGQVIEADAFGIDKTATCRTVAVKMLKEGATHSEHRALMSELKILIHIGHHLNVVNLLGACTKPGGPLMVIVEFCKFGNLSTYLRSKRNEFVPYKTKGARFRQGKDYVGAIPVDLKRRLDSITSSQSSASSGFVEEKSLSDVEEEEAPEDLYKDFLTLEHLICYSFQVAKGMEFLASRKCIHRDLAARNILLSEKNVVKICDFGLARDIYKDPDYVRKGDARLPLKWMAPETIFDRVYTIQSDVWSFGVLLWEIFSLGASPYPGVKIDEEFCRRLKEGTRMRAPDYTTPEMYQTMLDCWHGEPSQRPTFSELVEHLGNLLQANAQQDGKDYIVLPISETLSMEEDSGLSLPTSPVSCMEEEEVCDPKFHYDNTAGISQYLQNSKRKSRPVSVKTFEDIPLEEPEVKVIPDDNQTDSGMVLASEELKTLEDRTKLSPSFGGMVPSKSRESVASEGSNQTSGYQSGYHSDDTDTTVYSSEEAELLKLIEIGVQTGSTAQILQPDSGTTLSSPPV
Description: Recombinant KDR protein was expressed in E. coli and then purified. The kinase substrate used was the biotinylated peptide having the amino acid sequence biotin-DFGLARDMYDKEYYSVG, which was purchased from Biosynthan. KDR [test volume 5 μl] was incubated in the presence of various concentrations of test substances (0 μM, and 10 measurement points within the range 0.001-20 μM in duplicate) in assay buffer [50 mM HEPES pH 7.0, 25.0 mM MgCl2, […], 0.1 mM Na ortho-vanadate, 1.0 mM dithiothreitol, 0.001% NP40, 10 μM ATP, 0.03 μM substrate peptide […], 1.0% dimethyl sulphoxide] at 22° C. for 45 min. The reaction was stopped by adding 5 μl of an EDTA/detection solution [50 mM HEPES pH 7.5, 125 mM EDTA, 0.2% BSA, 0.1 μM streptavidin-XLent (from CisBio), 2 nM PT66-Eu (from PerkinElmer)]. The fluorescence emission at 620 nm and 665 nm after excitation with light of the wavelength 350 nm was measured in a Rubystar HTRF instrument from BMG Labsystems.
The measured data (ratio of emission 665 divided by emission 620 multiplied by 10 000) were normalized to 0% inhibition (enzyme reaction without inhibitor) and 100% inhibition (all assay components apart from enzyme). The IC50 values were determined by means of a 4-parameter fit using the company's own software.

MCF7 breast tumour cells = experiment: MCF7 proliferation assay; format: cell-based, human; settings: for IC50: Homo sapiens, MCF7, 96 h, 4 days incubation, crystal violet staining; for antiproliferative activity, MCF7 (in words): summary of Tab. 2
Description: Cultivated human MCF7 breast tumour cells (ATCC HTB-22) were plated out in a density of 5000 cells/measurement point in 200 μl of growth medium (RPMI1640, 10% foetal calf serum, 2 mU/mL insulin, 0.1 nM oestradiol) in a 96-well multititre plate. After 24 hours, the cells from a plate (zero plate) were stained with crystal violet (see below), while the medium in the other plates was replaced by fresh culture medium (200 μl) to which the test substances had been added in various concentrations (0 μM, and in the range 0.1-30 μM; the final concentration of the solvent dimethyl sulphoxide was 0.5%). The cells were incubated in the presence of the test substances for 4 days. The cell proliferation was determined by staining the cells with crystal violet: the cells were fixed by adding 20 μl/measurement point of an 11% strength glutaraldehyde solution at room temperature for 15 min. After the fixed cells had been washed three times with water, the plates were dried at room temperature. The cells were stained by adding 100 μl/measurement point of a 0.1% strength crystal violet solution (pH adjusted to pH 3 by adding acetic acid). After the stained cells had been washed three times with water, the plates were dried at room temperature. The dye was dissolved by adding 100 μl/measurement point of a 10% strength acetic acid solution, and the extinction was determined by photometry at a wavelength of 595 nm. The percentage change in cell growth was calculated by normalizing the measurements to the extinctions of the zero point plate (=0%) and the extinction of the untreated (0 μM) cells (=100%). The IC50 values were determined by means of a 4-parameter fit using the company's own software.

CDK1/CycB = molecular target: T3, CDK1/CycB (Homo sapiens, UniProt P06493); experiment: CDK1/CycB kinase assay; format: biochemical; settings: 0.5 μM ATP, histone IIIS, 22° C., 10 min
T3 construct: GST; purchased ProQinase GmbH, Freiburg; host or cells: baculovirus-infected insect cells (Sf9)
T3 sequence (P06493 whole entry): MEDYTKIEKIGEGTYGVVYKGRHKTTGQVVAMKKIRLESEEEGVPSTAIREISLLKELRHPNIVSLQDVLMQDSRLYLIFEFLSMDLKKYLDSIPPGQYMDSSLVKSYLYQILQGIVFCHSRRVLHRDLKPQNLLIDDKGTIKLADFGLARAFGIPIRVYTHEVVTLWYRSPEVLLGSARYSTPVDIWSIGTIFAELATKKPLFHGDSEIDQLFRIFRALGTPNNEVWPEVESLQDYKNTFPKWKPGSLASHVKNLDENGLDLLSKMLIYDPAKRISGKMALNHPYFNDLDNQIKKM
T3 sequence (P14635 whole entry partner): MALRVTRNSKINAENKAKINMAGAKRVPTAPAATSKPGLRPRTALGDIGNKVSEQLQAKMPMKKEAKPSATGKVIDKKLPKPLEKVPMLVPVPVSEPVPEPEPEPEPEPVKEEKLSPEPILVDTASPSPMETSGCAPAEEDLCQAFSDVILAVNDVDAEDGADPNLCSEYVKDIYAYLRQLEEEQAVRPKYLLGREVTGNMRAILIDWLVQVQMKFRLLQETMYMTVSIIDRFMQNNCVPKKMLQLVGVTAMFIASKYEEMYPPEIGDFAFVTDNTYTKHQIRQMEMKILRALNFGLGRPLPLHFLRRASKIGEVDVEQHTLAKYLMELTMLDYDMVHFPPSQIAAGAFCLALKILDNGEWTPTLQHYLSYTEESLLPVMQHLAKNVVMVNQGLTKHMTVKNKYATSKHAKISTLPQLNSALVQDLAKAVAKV
Description: as §1, with “Recombinant CDK1- and CycB-GST fusion proteins, purified from baculovirus-infected insect cells (Sf9), were purchased from ProQinase GmbH, Freiburg. The histone IIIS used as kinase substrate can be purchased from Sigma. CDK1/CycB (200” for “CDK2/CycE (50”
as §2, with “15 μl of each reaction mixture were loaded onto P30 filter strips (from Wallac), and non-incorporated ^33P-ATP was removed by washing the filter strips three times in 0.5% strength phosphoric acid for 10 min each time. After” for “After”

Aurora-C = molecular target: T4, Aurora-C (Homo sapiens, UniProt Q9UQB9); experiment: Aurora-C kinase assay; format: biochemical; settings: for IC50: 3 μM ATP, 22° C., 90 min
T4 construct: made in house; host or cells: transiently transfected HEK293 cells
T4 sequence (Q9UQB9 1-309): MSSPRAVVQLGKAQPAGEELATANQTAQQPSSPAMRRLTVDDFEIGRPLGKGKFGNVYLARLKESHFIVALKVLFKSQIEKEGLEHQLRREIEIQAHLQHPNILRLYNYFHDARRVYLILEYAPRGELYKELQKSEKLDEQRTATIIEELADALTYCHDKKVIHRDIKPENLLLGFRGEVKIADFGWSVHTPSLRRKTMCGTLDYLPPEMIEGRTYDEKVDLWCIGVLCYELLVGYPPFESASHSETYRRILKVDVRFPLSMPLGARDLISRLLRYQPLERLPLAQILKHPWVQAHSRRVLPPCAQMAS
Description: Recombinant Aurora-C protein was expressed in transiently transfected HEK293 cells and then purified. The kinase substrate used was the biotinylated peptide having the amino acid sequence biotin-FMRLRRLSTKYRT, which was purchased from Jerini AG in Berlin.
Aurora-C [5 nM in the test mixture, test volume 5 μl] was incubated in the presence of various concentrations of test substances (0 μM and 10 measurement points within the range 0.001-20 μM in duplicate) in assay buffer [25 mM HEPES pH 7.4, 0.5 mM MnCl2, 0.1 mM Na ortho-vanadate, 2.0 mM dithiothreitol, 0.05% bovine serum albumin (BSA), 0.01% Triton X-100, 3 μM adenosine trisphosphate (ATP), 0.67 nCi/μl gamma-^33P-ATP, 2.0 μM substrate peptide biotin-FMRLRRLSTKYRT, 1.0% dimethyl sulphoxide] at 22° C. for 90 min. The reaction was stopped by adding 12.5 μl of an EDTA/detection solution [16 mM EDTA, 40 mM ATP, 0.08% Triton X-100, 4 mg/ml PVT streptavidin SPA beads (from Amersham)]. After incubation for 10 minutes, the SPA beads were pelleted by centrifugation at 1000×G for 10 minutes. Measurement took place in a PerkinElmer Topcount scintillation counter. The measured data were normalized to 0% inhibition (enzyme reaction without inhibitor) and 100% inhibition (enzyme reaction in the presence of 0.1 μM staurosporine (from Sigma)). The IC50 values were determined by means of a 4-parameter fit using the company's own software.

| IC50 (CDK2/CycE) | IC50 (KDR (VEGFR2)) | IC50 (MCF7 breast tumour cells) | IC50 (CDK1/CycB) | IC50 (Aurora-C) | inhibition of CDK2 kinase (in words) (CDK2/CycE) | inhibition of Aurora C kinase (in words) (Aurora-C; summary of Tab. 1) | Compound | antiproliferative activity, MCF7 (in words) (MCF7 breast tumour cells) |
| --- | --- | --- | --- | --- | --- | --- | --- | --- |
| 28 nM | 15 nM | 110 nM | 140 nM | 660 nM | – | – | C[C@@H](Nc1nc(Nc2ccc(S(C)=NS(=O)(=O)Cc3ccccc3)cc2)ncc1Br)C(C)(C)O (mixture of isomers) [Example 13, (RS)—N—(Benzylsulphonyl)-S-{4-[(5-bromo-4-{[(R)-2-hydroxy-1,2-dimethylpropyl]-amino}pyrimidin-2-yl)amino]phenyl}-S-methylsulphimide] | excellent antiproliferative activity |
| 22 nM | 44 nM | 330 nM | 46 nM | 390 nM | – | – | C[C@@H](Nc1nc(Nc2ccc(S(C)=NS(=O)(=O)C(C)(C)C)cc2)ncc1Br)C(C)(C)O (mixture of isomers) [Example 22, (RS)—S-{4-[(5-Bromo-4-{[(R)-2-hydroxy-1,2-dimethylpropyl]amino}pyrimidin-2-yl)amino]phenyl}-N-(tert-butylsulphonyl)-S-methylsulphimide] | – |
| 72 nM | 150 nM | 170 nM | 260 nM | 1800 nM | – | – | C[C@@H](Nc1nc(Nc2ccc(S(C)=NS(=O)(=O)c3ccc(OC(F)(F)F)cc3)cc2)ncc1Br)C(C)(C)O (mixture of isomers) [Example 16, (RS)—S-{4-[(5-Bromo-4-{[(R)-2-hydroxy-1,2-dimethylpropyl]-amino}pyrimidin-2-yl)amino]phenyl}-S-methyl-N-{[4-(trifluoromethoxy)phenyl]-sulphonyl}sulphimide] | excellent antiproliferative activity |
| 900 nM | 37 nM | 2200 nM | > 1000 nM | 240 nM | – | – | Cc1ccc(S(=O)(=O)N=S(C)c2ccc(Nc3ncc(Br)c(NC(C)C)n3)cc2)cc1 (racemic) [Example 1, (RS)—S-(4-{[5-Bromo-4-(isopropylamino)pyrimidin-2-yl]amino}phenyl)-S-methyl-N-(tolylsulphonyl)sulphimide] | – |
| 39 nM | 38 nM | 200 nM | 160 nM | 480 nM | – | – | COc1ccc(S(=O)(=O)N=S(C)c2ccc(Nc3ncc(Br)c(N[C@H](C)C(C)(C)O)n3)cc2)cc1 (mixture of isomers) [Example 12, (RS)—S-{4-[(5-Bromo-4-{[(R)-2-hydroxy-1,2-dimethylpropyl]amino}pyrimidin-2-yl)amino]phenyl}-N-[(4-methoxyphenyl)sulphonyl]-S-methylsulphimide] | – |
| 28 nM | 36 nM | < 100 nM | 150 nM | 360 nM | shows inhibition | – | Cc1ccc(S(=O)(=O)N=S(C)c2ccc(Nc3ncc(Br)c(N[C@H](C)C(C)(C)O)n3)cc2)cc1 (mixture of isomers) [Example 9, (RS)—S-{4-[(5-Bromo-4-{[(R)-2-hydroxy-1,2-dimethylpropyl]amino}pyrimidin-2-yl)amino]phenyl}-S-methyl-N-(tolylsulphonyl)sulphimide] | excellent antiproliferative activity |
| 14 nM | 44 nM | < 100 nM | 90 nM | 370 nM | active | active | C[C@@H](Nc1nc(Nc2ccc(S(C)=NS(=O)(=O)c3cnccc3Cl)cc2)ncc1Br)C(C)(C)O (mixture of isomers) [Example 11, (RS)—S-{4-[(5-Bromo-4-{[(R)-2-hydroxy-1,2-dimethylpropyl]amino}pyrimidin-2-yl)amino]phenyl}-N-[(4-chloro-3-pyridyl)sulphonyl]-S-methylsulphimide] | – |
| 6 nM | 35 nM | 170 nM | 50 nM | 400 nM | – | – | C[C@@H](Nc1nc(Nc2ccc(S(C)=NS(C)(=O)=O)cc2)ncc1Br)C(C)(C)O (mixture of isomers) [Example 18, (RS)—S-{4-[(5-Bromo-4-{[(R)-2-hydroxy-1,2-dimethylpropyl]amino}pyrimidin-2-yl)amino]phenyl}-N-mesyl-S-methylsulphimide] | – |
